The nature of assay [1]: Trypanosoma cruzi growth suppression in host cells – NIH3T3 host cells, beta-gal luminescence, confirmation (AID 2044).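 Also: intracellular parasites grown in NIH/3T3 mouse fibroblasts as host cells; luminescent beta-galactosidase reporter signal from transgenic T. cruzi replicating inside host cells; inhibitors lower the luminescence signal.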 The assay is classed as functional, cell-based.
Assay [2] can be described thus: NIH3T3 cell viability loss – ATP luminescence, mouse fibroblasts, counter-screen, dose response (AID 2010).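 Also: cells exposed to compound for about 90 hours before reading.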 The assay is classed as functional, cell-based.
The target of assay [3] is T1, Replicative DNA helicase DnaB (Mycobacterium tuberculosis, UniProt P9WMR3).
T1 sequence (P9WMR3 whole entry): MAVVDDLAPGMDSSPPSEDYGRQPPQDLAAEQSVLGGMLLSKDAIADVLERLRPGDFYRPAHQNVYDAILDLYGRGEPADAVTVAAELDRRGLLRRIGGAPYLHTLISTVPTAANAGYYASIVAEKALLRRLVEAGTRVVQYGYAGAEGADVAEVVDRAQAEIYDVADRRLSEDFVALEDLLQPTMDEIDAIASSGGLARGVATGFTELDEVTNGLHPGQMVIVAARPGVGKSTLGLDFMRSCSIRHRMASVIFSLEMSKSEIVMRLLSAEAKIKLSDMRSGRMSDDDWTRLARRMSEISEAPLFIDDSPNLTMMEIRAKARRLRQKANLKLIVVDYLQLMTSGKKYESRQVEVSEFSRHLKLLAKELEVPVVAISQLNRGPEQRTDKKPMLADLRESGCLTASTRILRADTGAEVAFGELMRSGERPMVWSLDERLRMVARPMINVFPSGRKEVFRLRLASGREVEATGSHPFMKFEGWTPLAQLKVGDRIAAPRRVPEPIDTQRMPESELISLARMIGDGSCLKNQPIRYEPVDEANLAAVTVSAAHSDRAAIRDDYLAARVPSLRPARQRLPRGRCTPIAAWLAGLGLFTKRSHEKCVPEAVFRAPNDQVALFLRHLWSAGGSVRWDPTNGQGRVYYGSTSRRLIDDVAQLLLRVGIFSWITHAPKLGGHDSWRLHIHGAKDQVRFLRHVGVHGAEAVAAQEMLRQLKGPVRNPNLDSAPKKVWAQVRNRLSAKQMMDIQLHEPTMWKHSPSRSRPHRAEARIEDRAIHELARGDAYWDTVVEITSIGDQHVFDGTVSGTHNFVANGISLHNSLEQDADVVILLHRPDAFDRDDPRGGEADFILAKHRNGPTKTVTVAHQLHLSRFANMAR
In words: DnaB intein splicing inhibitors, dose response, biochemical, cell-free fluorescence (AID 449749). The class given is functional.

The target of assay [4] is T2, Protein RecA (Mycobacterium tuberculosis, UniProt P9WHJ3).
T2 sequence (P9WHJ3 whole entry): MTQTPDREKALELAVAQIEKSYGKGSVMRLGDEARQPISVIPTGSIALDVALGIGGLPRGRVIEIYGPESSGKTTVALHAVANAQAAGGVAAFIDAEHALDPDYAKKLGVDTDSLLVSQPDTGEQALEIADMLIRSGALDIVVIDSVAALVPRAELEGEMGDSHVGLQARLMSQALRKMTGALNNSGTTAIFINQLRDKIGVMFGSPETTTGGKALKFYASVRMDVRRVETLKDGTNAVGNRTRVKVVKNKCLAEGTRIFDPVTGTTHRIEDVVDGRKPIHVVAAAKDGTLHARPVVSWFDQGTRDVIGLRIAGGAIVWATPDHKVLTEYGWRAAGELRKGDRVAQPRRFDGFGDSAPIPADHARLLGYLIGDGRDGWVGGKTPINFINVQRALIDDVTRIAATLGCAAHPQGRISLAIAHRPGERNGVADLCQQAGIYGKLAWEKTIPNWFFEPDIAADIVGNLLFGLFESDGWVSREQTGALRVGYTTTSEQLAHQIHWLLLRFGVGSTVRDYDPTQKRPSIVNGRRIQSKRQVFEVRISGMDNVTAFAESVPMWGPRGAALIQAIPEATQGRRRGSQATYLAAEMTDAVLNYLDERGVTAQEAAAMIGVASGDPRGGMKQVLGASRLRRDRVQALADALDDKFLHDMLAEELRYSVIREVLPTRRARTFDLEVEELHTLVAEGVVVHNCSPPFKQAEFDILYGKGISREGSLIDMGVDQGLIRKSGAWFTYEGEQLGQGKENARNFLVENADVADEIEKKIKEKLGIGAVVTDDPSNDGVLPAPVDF
In words: Fluorescence Cell-Free Homogeneous Dose Retest to Identify Inhibitors of RecA-Intein Splicing Activity. [Related pubchem assays (depositor defined):AID2097, AID2223, AID489010, AID492950]. The class given is functional.

The subject of assay [5] is Streptococcus sp. 'group A'. In words: Streptococcus pyogenes SK(-)GAS viability under kanamycin – luminescence, BacTiterGlo, confirmation, counter-screen for streptokinase expression inhibitor project, dose response (AID 1900). The class given is functional, organism-based.
The target of assay [6] is T3, Streptokinase A (Streptococcus pyogenes serotype M1, UniProt P10520).
T3 sequence (P10520 whole entry): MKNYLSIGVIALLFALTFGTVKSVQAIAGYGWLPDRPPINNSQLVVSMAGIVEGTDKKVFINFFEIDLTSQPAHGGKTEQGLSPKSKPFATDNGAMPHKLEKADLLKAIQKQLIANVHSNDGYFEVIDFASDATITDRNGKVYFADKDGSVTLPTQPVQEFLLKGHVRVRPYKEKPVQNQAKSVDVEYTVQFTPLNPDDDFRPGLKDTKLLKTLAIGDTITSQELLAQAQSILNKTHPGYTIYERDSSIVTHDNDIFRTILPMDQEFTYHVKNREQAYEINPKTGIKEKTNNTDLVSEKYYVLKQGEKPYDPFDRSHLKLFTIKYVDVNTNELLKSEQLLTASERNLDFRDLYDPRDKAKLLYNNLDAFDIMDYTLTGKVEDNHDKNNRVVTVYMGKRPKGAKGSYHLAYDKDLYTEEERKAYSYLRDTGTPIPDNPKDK
In words: viability-normalized secreted streptokinase activity reduction – plasminogen activation absorbance, OD405, dose response (AID 1914).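 Also: secreted streptokinase activity via plasminogen activation per viability signal from cell pellet.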 The class given is functional, Streptococcus pyogenes M1 GAS.

Assay [7] relates to Streptococcus. In words: GAS UMAA2166 growth inhibition – luminescence, BacTiterGlo, counter-screen for streptokinase expression inhibitor project, dose response (AID 1915).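 Also: potency for reduction of bacterial viability or growth.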 The assay is classed as functional, organism-based.
The target of assay [8] is T4, Cytochrome P450 1A2 (Homo sapiens, UniProt P05177).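 Also: PubChem cytochrome P450 panel assay, CYP1A2 panel member.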
T4 sequence (P05177 whole entry): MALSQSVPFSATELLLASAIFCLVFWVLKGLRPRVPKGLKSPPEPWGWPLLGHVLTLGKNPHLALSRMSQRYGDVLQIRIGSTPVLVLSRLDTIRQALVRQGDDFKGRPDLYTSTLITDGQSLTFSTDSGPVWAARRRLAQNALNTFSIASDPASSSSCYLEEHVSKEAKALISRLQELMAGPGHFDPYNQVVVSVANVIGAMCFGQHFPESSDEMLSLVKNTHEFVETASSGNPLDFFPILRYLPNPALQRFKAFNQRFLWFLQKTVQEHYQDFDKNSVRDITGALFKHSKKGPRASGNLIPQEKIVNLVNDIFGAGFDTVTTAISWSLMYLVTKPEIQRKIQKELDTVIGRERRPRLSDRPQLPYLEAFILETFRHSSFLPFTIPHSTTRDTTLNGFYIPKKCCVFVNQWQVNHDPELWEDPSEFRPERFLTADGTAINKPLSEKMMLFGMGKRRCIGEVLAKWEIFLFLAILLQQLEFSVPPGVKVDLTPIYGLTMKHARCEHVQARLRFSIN

Experimental findings from ChEMBL document CHEMBL1201862, “PubChem BioAssay data set” (2004) are described below.

Active and inactive are the calls of the source. Rule as the data show it, for most assays here: actives have a measured EC50 and inactives only a lower limit.

As a reminder, the EC50 is the concentration at which the effect is half-maximal. Turning to `C=C(C)c1cccc(C(C)(C)NC(=O)NC2CCN(Cc3ccccc3)CC2)c1`, the EC50 was 0.103 µM (active) in assay [1] and > 60 µM (not active) in assay [2].

As usually defined, the AC50 is the midpoint of the concentration-response curve, whichever way the signal moves. As to `CCN1C(=O)C(=NNc2cccc(S(=O)(=O)N3CCOCC3)c2)C(=O)N(CC)C1=S`, the AC50 in assay [3] was > 380 µM (inactive). Further, the EC50 in assay [4] is > 380 µM (inconclusive).

`COc1ccc(C2=NN(C(=O)/C=C/c3ccccc3)C(c3ccccc3)C2)c(OC(C)=O)c1` (stereo not given): the AC50 in assay [3] is > 380 µM (inactive). Besides, the EC50 in assay [4] was 53.8 µM (active).

As for `O=C(NC(=S)Nc1ccc(-c2nc3ncccc3o2)cc1)c1ccccc1F`, the 50% effective concentration (EC50) in assay [5] is 84.3 µM (active); in assay [6], > 150 µM (not active); in assay [7] it was 21.3 µM (active).

On to `Cc1ccc(NC(=S)NC(=O)c2c(-c3ccccc3Cl)noc2C)cc1`, for which, in assay [8], the AC50 was 8.91 µM (inconclusive).

Turning to `CCOC(=O)C1=C(C)NC(C)=C(C(=O)OC)[C@@H]1c1cccc([N+](=O)[O-])c1` [(S)-NITRENDIPINE], the AC50 in assay [8] was 15.8 µM (inconclusive).

Turning to `c1ccc(CCNc2ccccn2)nc1`, the AC50 in assay [8] was 5.01 µM (inconclusive).

Regarding `OCCNc1nc(Nc2ccc(Br)cc2)nc2ccccc12`, the EC50 in assay [1] was 0.801 µM (active); in assay [2], > 30 µM (not active).

Turning to `CN(C)CCNC(=O)c1cc(Sc2ccc(F)cc2)nc2ccccc12`, the results for the EC50 in assay [1] and in assay [2] were 0.282 µM (active) and > 60 µM (not active), respectively.

For the compound `O=[N+]([O-])C(/C=C(/Cl)[N+](=O)[O-])=C(N1CCCCC1)N1CCCCC1`, the EC50 is 1.25 µM (active) in assay [1] and 8.34 µM (active) in assay [4]. The AC50 in assay [3] was 14.5 µM (active).

Take `CCCc1n[nH]c2c1C(c1cccc(OC)c1)C(C#N)=C(N)O2` (stereo not given): the AC50 in assay [3] is 19.3 µM (active). Moreover, the EC50 in assay [4] is 9.09 µM (active).

Regarding `O=C(/C=C\c1ccc(Cl)cc1)N[C@@]12CCC(=O)[C@@H]3Oc4c(O)ccc5c4[C@@]31CCN(CC1CC1)[C@@H]2C5`, in assay [8], the AC50 is 39.8 µM (inconclusive).

In the case of `Nc1nc(-c2ccc(Br)cc2)c(S(=O)(=O)c2ccccc2)s1`, the AC50 in assay [3] is 4.22 µM (active). In assay [4], the EC50 was > 380 µM (inactive).

As to `CC(C)CN(Cc1cc(=O)oc2cc3c(cc12)CCCC3)CC(C)C`, the EC50 in assay [5] is 6.12 µM (active); in assay [6] it was 5.67 µM (active); in assay [7], 21.2 µM (active).

Take `Clc1cccc(Nc2ncnc3c2cnn3-c2ccccc2)c1`: the figures for the EC50 in assay [5], in assay [6] and in assay [7] were 7.78 µM (active), > 150 µM (not active) and 6.82 µM (active), respectively.

With `COc1ccc(C2CC(c3ccccc3)=NN2c2ccc(S(N)(=O)=O)cc2)cc1` (stereo not given), the EC50 in assay [1] was 2.83 µM (active); in assay [2], > 60 µM (inconclusive).

For the compound `COc1ccc(Br)cc1C(=O)Nc1ccc(Cc2ccncc2)cc1`, the concentration for a half-maximal effect (EC50) in assay [1] is 3.4 µM (active); in assay [2], > 60 µM (not active).

For the compound `O=C(O)COc1ccc(OCCNC[C@@H](O)COc2ccccc2)cc1`, the AC50 in assay [8] is 39.8 µM (inconclusive).

With `CN(N)C(S)=Nc1ccc(Cl)cc1`, the AC50 in assay [3] was > 380 µM (inactive). The EC50 in assay [4] is > 380 µM (inactive).

As for `CN1CCN(c2nc(-c3ccccc3)nc(-c3ccc(F)cc3)c2C#N)CC1`, the EC50 in assay [1] is 1.25 µM (active); in assay [2] it was > 60 µM (not active).

As to `CS(=O)(=O)N1CCC2(CC1)CN(c1ccccc1)C2`, the AC50 in assay [8] is 20 µM (inconclusive).

As to `COC(=O)CSc1nc2sc3c(c2c(=O)n1C1CCCCC1)CCN(C)C3`, in assay [3], the AC50 was > 120 µM (inactive). Also, in assay [4], the EC50 was 31.4 µM (active).

In the case of `CCCC(=O)OCCNc1cc(SCc2ccco2)c2nonc2c1[N+](=O)[O-]`, the half-maximal activity concentration (AC50) in assay [3] was 4.88 µM (active). In assay [4], the EC50 is 1.98 µM (active).

For the compound `CCC[C@@H]1C[C@@]1(CCC)C(NC(=O)c1ccco1)c1ccc(Cl)cc1` (stereo not given in full), the AC50 in assay [8] was 25.1 µM (inconclusive).

Consider `CSc1ccc(NC(=O)Nc2cccn(Cc3ccccc3F)c2=O)cc1`, for which the EC50 was 4.33 µM (active) in assay [1] and > 60 µM (not active) in assay [2].

For the compound `Cc1cccn2c(CNCC3(c4ccccc4)CCCC3)c(C(=O)N3CCOCC3)nc12`, in assay [3], the AC50 is > 380 µM (inactive). Further, the EC50 in assay [4] was > 380 µM (inactive).

With `CCOc1cc(/C=N\NC(=O)OC(C)(C)C)ccc1OC(=O)c1ccco1`, the AC50 in assay [3] was 12.8 µM (active). The EC50 in assay [4] is 19.8 µM (active).

Regarding `Cc1ccc(NC(=O)C2CCCN(C(=O)c3ccc(Cl)cc3)C2)cc1S(=O)(=O)N1CCOCC1` (stereo not given), the figures for the concentration giving a half-maximal response (EC50) in assay [1] and in assay [2] were 26.6 µM (active) and > 60 µM (not active), respectively.

For `CCOC(=O)c1cc(-c2ccc(OC(F)F)cc2)nc2c1c(=O)[nH]c(=O)n2C`, the EC50 in assay [5] is 0.458 µM (active); in assay [7] it was 1.97 µM (active).

With `CCOC(=O)c1cc(-c2ccc(F)cc2)n(CCC(=O)NC2CCN(Cc3ccccc3)CC2)c1C`, the EC50 in assay [1] is 0.773 µM (active); in assay [2], > 60 µM (not active).

For `CCOC(=O)Cc1n[nH]c2c1C(c1ccsc1)C(C#N)=C(N)O2` (stereo not given), in assay [3], the AC50 was > 380 µM (inactive). For the same compound, the EC50 in assay [4] is 31.3 µM (active).

`COCCn1c(=O)c(-c2cc(F)cc(F)c2)nc2cnc(Nc3cccc(OC)c3)nc21`: in assay [8], the AC50 is 2.51 µM (inconclusive).
